Key:
[1] = tested on: ATP levels in ubi-AT1.03NL wing discs; assay: Measurement of ATP using FRET-based ATP sensor AT1.03NL in explanted wing discs; format: cell-based, Drosophila; details: explanted wing discs treated with antimycin A for 2 h
Protocol: Wing discs from up‐crawling third‐instar larvae were dissected within 10 min in Grace's medium supplemented with 5% FBS and 20 nM 20‐hydroxyecdysone (Dye et al, 2017). Dissected wing discs were mounted with their basal side up on glass‐bottom dishes (MatTek Corporation, #P35G‐1.0‐20‐C) with a double‐sided tape spacer and immobilized with a Whatman™ Cyclopore™ track‐etched polycarbonate membrane filter (GE Healthcare Life Sciences, #7062‐2513). Imaging of ubi‐AT1.03NL wing discs was performed on an Olympus IX81 microscope equipped with Yokogawa spinning disk (CSU‐W1, Yokogawa) and Ixon Ultra EMCCD camera (Andor). The sensitized emission method was used to measure FRET. Wing discs were excited with a 445 nm laser twice in a sequential manner. Upon first excitation, emission of mse‐CFP was collected using an HQ 480/40 bandpass filter. Upon second excitation, emission of cpVenus‐FRET was collected using an HQ 542/27 filter. The emission of cpVenus‐FRET has contributions from the energy transfer from mse‐CFP and bleed‐through of mse‐CFP into the HQ 542/27 filter. […]
A custom‐written MATLAB (MathWorks) script was used to estimate the FRET efficiency from the fluorescence images. […]
The FRET efficiency (η) was calculated as, η=IFRET/ID+IFRET […]

[2] = tested on: Smo-mEos2 localization to the primary cilium in NIH3T3 cells; assay: Smo-mEos2 ciliary localization in NIH3T3/Smo-mEos2 cells (immunofluorescence); format: cell-based; details: Hh ligands not present
Protocol: NIH3T3/Smo‐mEos2 cells (Kim et al, 2014) (a gift from P. Beachy, SUSM, Stanford, CA, USA) were grown to confluence on coverslips in DMEM (Thermo Fisher Scientific, #31966021) supplemented with 10% FBS (Thermo Fisher Scientific, #10270106), 1% penicillin/streptomycin (Thermo Fisher Scientific, #15140122) and 1% MEM non‐essential amino acids (Thermo Fisher Scientific, #11140050) at 37°C. For SAG, 3‐BP and 2‐DG treatment, cells were then shifted to serum‐deprived medium containing 0.5% FBS instead of 10% FBS and incubated for 24 h with 100 nM SAG (Merck, #566660), 25 mM of 2‐DG (ROTH, #CN96.3) or 15 μM 3‐BP (Sigma‐Aldrich, #16490‐10G), respectively, or without any compound at 37°C. […]
(§1) Only ring glands and wing discs that were processed in parallel, imaged using the same microscope settings, and properly mounted were used for quantifications. For quantification of immunohistochemical staining of CD8::GFP in ring glands, the mean pixel intensity of two regions of interest of 25 × 25 μm per ring gland was determined using ROI manager, and the average of these was used for the statistical analysis. For quantification of compartment size, wing disc folds served as morphological landmarks to outline the region of the wing pouch and the D/V boundary. The area of dorsal and ventral compartment was then determined using ROI manager. […] The mean grey value was measured using ROI manager. […]

[3] = tested on: PAC-NAE uptake into wing discs; assay: Lipophorin-mediated PAC-NAE uptake in wing discs; format: cell-based, Drosophila
Protocol: The isolation procedure of Lipophorin (Lpp) particles was adapted from Panakova et al (2005). Briefly, 10 ml feeding third‐instar larvae were first washed with water and then with TNE buffer (100 mM Tris–HCl pH 7.5, 150 mM NaCl, 0.2 mM EGTA, cOmplete™ protease inhibitor cocktail (Roche, #000000011697498001)). All following steps were conducted at 4 °C (unless stated otherwise). Larvae were homogenized in TNE buffer in a tissue grinder with a loose pestle, and the homogenate was centrifuged for 10 min at 1,000 × g and afterwards for 3 h at 142,000 × g. The resulting supernatant (10 ml) was mixed with 40 μl 10 mM PAC‐NAE (EtOH solution) and sonicated for 5 min. […]
as §1, with “A/P boundary” for “mean grey value”, “determined according to anti‐Ci155 or anti‐Ptc co‐immunostaining.” for “measured using ROI manager.”

[4] = tested on: plasma membrane potential of wing discs; assay: Membrane potential assay with DiBAC4(3) in wing discs; format: cell-based, Drosophila; details: wing discs incubated with 1 μM gramicidin A for 30 min at 29°C
Protocol: To investigate the plasma membrane potential, we used the membrane potential‐sensitive dye DiBAC4(3) (Thermo Fisher Scientific, #B438). Wing discs from up‐crawling third‐instar larvae were dissected in Grace's medium supplemented with 5% FBS and 20 nM 20‐hydroxyecdysone (full medium) (Dye et al, 2017), and incubated with 500 nM DiBAC4(3) in full medium for 15 min at 29°C. After washing twice with full medium, wing discs were mounted and imaged immediately. A higher fluorescence intensity of DiBAC4(3) indicates depolarization of the plasma membrane. […]
Only ring glands and wing discs that were processed in parallel, imaged using the same microscope settings, and properly mounted were used for quantifications. For quantification of immunohistochemical staining of CD8::GFP in ring glands, the mean pixel intensity of two regions of interest of 25 × 25 μm per ring gland was determined using ROI manager, and the average of these was used for the statistical analysis. For quantification of compartment size, wing disc folds served as morphological landmarks to outline the region of the wing pouch and the D/V boundary. The area of dorsal and ventral compartment was then determined using ROI manager. […] The A/P boundary was determined according to anti‐Ci155 or anti‐Ptc co‐immunostaining. […] The mean grey value was measured using ROI manager. […] The integrated density was measured using ROI manager. […]

CCCCCC[C@H]1C(=O)O[C@H](C)[C@H](NC(=O)c2cccc(NC=O)c2O)C(=O)O[C@@H](C)[C@@H]1OC(=O)CC(C)C [antimycin A]
FRET signal of ubi-AT1.03NL (cellular ATP levels) [1]: strongly reduced

O=CC[C@@H](O)[C@H](O)[C@H](O)CO [2-DG, 2‐deoxyglucose]
Smo-mEos2 accumulation in the primary cilium [2]: accumulates in the primary cilium

C#CCCCC1(CCCCCCCCC(=O)NCCO)N=N1 [PAC-NAE]
PAC-NAE accumulation in wing disc tissue ([3]; knock-down of either ecd or Gapdh in the dorsal compartment, 1.5 μM PAC-NAE labelled Lpp particles): autonomously reduced

gramicidin A
Uptake of PAC-NAE ([3]; wing discs incubated with 1 μM gramicidin A, compared to control discs): strongly reduces
Plasma membrane potential (DiBAC4(3) signal intensity) [4]: dissipate the plasma membrane potential

O=C(O)C(=O)CBr [3-BP, 3‐bromopyruvate]
Smo-mEos2 accumulation in the primary cilium [2]: accumulates in the primary cilium

— PMC7604625, “Glycolysis regulates Hedgehog signalling via the plasma membrane potential” (The EMBO Journal, 2020)
